In patent US20220363686A1 (AiCuris GmbH & Co. KG, priority 2018, published 2022):

Assays:
[1] = Cell viability assay (AlamarBlue); details: human, HepAD38 cells
Experimental: Using the AlamarBlue viability assay cytotoxicity was evaluated in HepAD38 cells in the presence of 0.3 μg/ml tetracycline, which blocks the expression of the HBV genome. Assay condition and plate layout were in analogy to the anti-HBV assay, however other controls were used. On each assay plate six wells containing untreated HepAD38 cells were used as the 100% viability control, and six wells filled with assay medium only were used as 0% viability control. In addition, a geometric concentration series of cycloheximide starting at 60 μM final assay concentration was used as positive control in each experiment. After six days incubation period Alamar Blue Presto cell viability reagent (ThermoFisher, Dreieich) was added in 1/11 dilution to each well of the assay plate. After an incubation for 30 to 45 min at 37° C. the fluorescence signal, which is proportional to the number of living cells, was read using a Tecan Spectrafluor Plus plate reader with an excitation filter 550 nm and emission filter 595 nm, respectively. Data were normalized into percentages of the untreated control (100% viability) and assay medium (0% viability) before CC50 values were calculated using non-linear regression and the GraphPad Prism 6.0 (GraphPad Software, La Jolla, USA). Mean EC50 and CC50 values were used to calculate the selectivity index (SI=CC50/EC50) for each test compound.

[2] = test system: HBV; experiment: Determination of HBV DNA from the supernatants of HepAD38 cells (anti-HBV activity); type: cell-based, hepatitis B virus; details: Hepatitis B virus, HePAD38, 144 h, HBV DNA in HepAD38 supernatant, day 6, qPCR; read-out: Cell Activity
Experimental: The anti-HBV activity was analysed in the stable transfected cell line HepAD38, which has been described to secrete high levels of HBV virion particles (Ladner et al., 1997). In brief, HepAD38 cells were cultured at 37° C. at 5% CO2 and 95% humidity in 200 μl maintenance medium, which was Dulbecco's modified Eagle's medium/Nutrient Mixture F-12 (Gibco, Karlsruhe), 10% fetal bovine serum (PAN Biotech Aidenbach) supplemented with 50 μg/ml penicillin/streptomycin (Gibco, Karlsruhe), 2 mM L-glutamine (PAN Biotech, Aidenbach), 400 μg/ml G418 (AppliChem, Darmstadt) and 0.3 μg/ml tetracycline. Cells were subcultured once a week in a 1:5 ratio, but were usually not passaged more than ten times. For the assay 60,000 cells were seeded in maintenance medium without any tetracycline into each well of a 96-well plate and treated with serial half-log dilutions of test compound. To minimize edge effects the outer 36 wells of the plate were not used but were filled with assay medium. On each assay plate six wells for the virus control (untreated HepAD38 cells) and six wells for the cell control (HepAD38 cells treated with 0.3 μg/ml tetracycline) were allocated, respectively. In addition, one plate set with reference inhibitors like BAY 41-4109, entecavir, and lamivudine instead of screening compounds were prepared in each experiment. In general, experiments were performed thrice in triplicates. At day 6 HBV DNA from 100 μl filtrated cell culture supernatant (AcroPrep Advance 96 Filter Plate, […] Supor membran, PALL GmbH, Dreieich) was automatically purified on the MagNa Pure LC instrument using the MagNA Pure 96 DNA and Viral NA Small Volume Kit (Roche Diagnostics, Mannheim) according to the instructions of the manufacturer. EC50 values were calculated from relative copy numbers of HBV DNA In brief, 5 μl of the 100 μl eluate containing HBV DNA were subjected to PCR LC480 Probes Master Kit (Roche) together with 1 μM antisense primer […], 0.5 μM sense primer […], 0.3 μM hybprobes […]-FL and LC640-[…]-PH (TIBMolBiol, Berlin) to a final volume of 12.5 μl. The PCR was performed on the Light Cycler 480 real time system (Roche Diagnostics, Mannheim) using the following protocol: Pre-incubation for 1 min at 95° C., amplification: 40 cycles×(10 sec at 95° C., 50 sec at 60° C., 1 sec at 70° C.), cooling for 10 sec at 40° C. Viral load was quantitated against known standards using HBV plasmid DNA of pCH-9/3091 (Nassal et al., 1990, Cell 63: 1357-1363) and the LightCycler 480 SW 1.5 software (Roche Diagnostics, Mannheim) and ECso values were calculated using non-linear regression with GraphPad Prism 6 (GraphPad Software Inc., La Jolla, USA).

[3] = target: HBV core protein (C-terminal truncated core protein containing 149 amino acids of the N-terminal assembly domain) (UniProt P03146); experiment: Biochemical capsid assembly assay (fluorescence quenching); design: rows headed: Assembly Activity; other: BODIPY-FL labelled core protein, assembly started with NaCl, read after 6 min; details: read-out: Assembly Activity; BODIPY-FL labelled core protein, assembly started with NaCl, read after 6 min
Experimental: The screening for assembly effector activity was done based on a fluorescence quenching assay published by Zotnick et al. (2007). The C-terminal truncated core protein containing 149 amino acids of the N-terminal assembly domain fused to a unique cysteine residue at position 150 and was expressed in E. coli using the pET expression system (Merck Chemicals, Darmstadt). Purification of core dimer protein was performed using a sequence of size exclusion chromatography steps. In brief, the cell pellet from 1 L BL21 (DE3) Rosetta2 culture expressing the coding sequence of core protein cloned NdeI/XhoI into expression plasmid pET21b was treated for 1 h on ice with a native lysis buffer (Qproteome Bacterial Protein Prep Kit; Qiagen, Hilden). After a centrifugation step the supernatant was precipitated during 2 h stirring on ice with 0.23 g/ml of solid ammonium sulfate. Following further centrifugation the resulting pellet was resolved in buffer A (100 mM Tris, pH 7.5; 100 mM NaCl; 2 mM DTT) and was subsequently loaded onto a buffer A equilibrated CaptoCore 700 column (GE HealthCare, Frankfurt). The column flow through containing the assembled HBV capsid was dialyzed against buffer N (50 mM NaHCO3 pH 9.6; 5 mM DTT) before urea was added to a final concentration of 3M to dissociate the capsid into core dimers for 1.5 h on ice. The protein solution was then loaded onto a IL Sephacryl S300 column. After elution with buffer N core dimer containing fractions were identified by SDS-PAGE and subsequently pooled and dialyzed against 50 mM HEPES pH 7.5; 5 mM DTT. To improve the assembly capacity of the purified core dimers a second round of assembly and disassembly starting with the addition of 5 M NaCl and including the size exclusion chromatography steps described above was performed. From the last chromatography step core dimer containing fractions were pooled and stored in aliquots at concentrations between 1.5 to 2.0 mg/ml at −80° C.
Immediately before labelling the core protein was reduced by adding freshly prepared DTT in a final concentration of 20 mM. After 40 min incubation on ice storage buffer and DTT was removed using a Sephadex G-25 column (GE HealthCare, Frankfurt) and 50 mM HEPES, pH 7.5. For labelling 1.6 mg/ml core protein was incubated at 4° C. and darkness overnight with BODIPY-FL maleimide (Invitrogen, Karlsruhe) in a final concentration of 1 mM. After labelling the free dye was removed by an additional desalting step using a Sephadex G-25 column. Labelled core dimers were stored in aliquots at 4° C. In the dimeric state the fluorescence signal of the labelled core protein is high and is quenched during the assembly of the core dimers to high molecular capsid structures. The screening assay was performed in black 384 well microtiter plates in a total assay volume of 10 μl using 50 mM HEPES pH 7.5 and 1.0 to 2.0 μM labelled core protein. Each screening compound was added in 8 different concentrations using a 0.5 log-unit serial dilution starting at a final concentration of 100 μM, 31.6 μM or 10 μM, In any case the DMSO concentration over the entire microtiter plate was 0.5%. The assembly reaction was started by the injection of NaCl to a final concentration of […] which induces the assembly process to approximately 25% of the maximal quenched signal. 6 min after starting the reaction the fluorescence signal was measured using a Clariostar plate reader (BMG Labtech, Ortenberg) with an excitation of 477 nm and an emission of 525 nm. As 100% and 0% assembly control HEPES buffer containing 2.5 M and 0 M NaCl was used. Experiments were performed thrice in triplicates. EC50 values were calculated by non-linear regression analysis using the Graph Pad Prism 6 software (GraphPad Software, La Jolla, USA).

Chain of HBV core protein (C-terminal truncated core protein containing 149 amino acids of the N-terminal assembly domain) (P03146 whole entry, the tested form may be a part): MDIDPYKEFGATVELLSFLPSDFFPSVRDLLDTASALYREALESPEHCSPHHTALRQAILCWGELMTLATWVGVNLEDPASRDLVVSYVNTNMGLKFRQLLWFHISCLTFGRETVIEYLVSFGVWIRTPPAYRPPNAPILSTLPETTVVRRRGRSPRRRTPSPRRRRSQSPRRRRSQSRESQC

SMILES	CC50 at 6 days [1]	EC50 [2]	IC50 [3]
O=C(c1cc2ccccc2[nH]1)N1CCn2ncc(C3CCC3)c2C1 [Example 6, 2-{3-cyclobutyl-4H,5H,6H,7H-pyrazolo[1,5-a]pyrazine-5-carbonyl}-1H-indole]	> 10 µM	< 1 µM	< 5 µM
O=C(c1cc2ccccc2[nH]1)N1CCn2ncc(S(=O)(=O)NC3CCOC3)c2C1 (stereo not drawn) [Example 30, 5-(1H-indole-2-carbonyl)-N-(oxolan-3-yl)-4H,5H,6H,7H-pyrazolo[1,5-a]pyrazine-3-sulfonamide]	> 10 µM	< 1 µM	< 5 µM
CN(Cc1ccccn1)C(=O)c1cnn2c1CN(C(=O)c1cc3ccccc3[nH]1)CC2 [Example 44, 5-(1H-indole-2-carbonyl)-N-methyl-N-[(pyridin-2-yl)methyl]-4H,5H,6H,7H-pyrazolo[1,5-a]pyrazine-3-carboxamide]	> 10 µM	< 1 µM	< 5 µM
Cc1c(F)ccc2[nH]c(C(=O)N3CCn4ncc(C(=O)N5CCC(O)CC56CC6)c4C3)cc12 (stereo not drawn) [Example 120, 4-[5-(5-fluoro-4-methyl-1H-indole-2-carbonyl)-4H,5H,6H,7H-pyrazolo[1,5-a]pyrazine-3-carbonyl]-4-azaspiro[2.5]octan-7-ol]	> 10 µM	< 1 µM	< 5 µM
CN(C(=O)c1cnn2c1CN(C(=O)c1cc3c(Cl)cccc3[nH]1)CC2)C1(CO)CC1 [Example 13, 5-(4-chloro-1H-indole-2-carbonyl)-N-[1-(hydroxymethyl)cyclopropyl]-N-methyl-4H,5H,6H,7H-pyrazolo[1,5-a]pyrazine-3-carboxamide]	> 10 µM	< 1 µM	< 5 µM
Cc1cc(F)cc2[nH]c(C(=O)N3Cc4c(C(=O)N[C@H](C)C(F)(F)F)cnn4CC3C)cc12 (stereo partly drawn) [Example 146, 5-(6-fluoro-4-methyl-1H-indole-2-carbonyl)-6-methyl-N-[(2R)-1,1,1-trifluoropropan-2-yl]-4H,5H,6H,7H-pyrazolo[1,5-a]pyrazine-3-carboxamide]	> 10 µM	< 1 µM	< 5 µM
COCC1(N(C)S(=O)(=O)c2cnn3c2CN(C(=O)c2cc4ccccc4[nH]2)CC3)CC1 [Example 32, 5-(1H-indole-2-carbonyl)-N-[1-(methoxymethyl)cyclopropyl]-N-methyl-4H,5H,6H,7H-pyrazolo[1,5-a]pyrazine-3-sulfonamide]	> 10 µM	< 1 µM	< 5 µM
CC1Cn2ncc(C(=O)NC3(COC(F)F)CC3)c2CN1C(=O)c1cc2cc(F)c(F)cc2[nH]1 (stereo not drawn) [Example 94, 5-(5,6-difluoro-1H-indole-2-carbonyl)-N-{1-[(difluoromethoxy)methyl]cyclopropyl}-6-methyl-4H,5H,6H,7H-pyrazolo[1,5-a]pyrazine-3-carboxamide]	> 10 µM	< 1 µM	< 5 µM
CN(CCO)C(=O)c1cnn2c1CN(C(=O)c1cc3c(Cl)cccc3[nH]1)CC2 [Example 52, 5-(4-chloro-1H-indole-2-carbonyl)-N-(2-hydroxyethyl)-N-methyl-4H,5H,6H,7H-pyrazolo[1,5-a]pyrazine-3-carboxamide]	> 10 µM	< 1 µM	< 5 µM
CN(C(=O)c1cnn2c1CN(C(=O)c1cc3cc(F)c(Cl)cc3[nH]1)CC2)C1(COC(F)F)CC1 [Example 23, 5-(6-chloro-5-fluoro-1H-indole-2-carbonyl)-N-{1-[(difluoromethoxy)methyl]cyclopropyl}-N-methyl-4H,5H,6H,7H-pyrazolo[1,5-a]pyrazine-3-carboxamide]	> 10 µM	< 1 µM	< 5 µM
CN(C(=O)c1cnn2c1CN(C(=O)c1cc3ccccc3[nH]1)CC2)C1(CNCC(F)F)CC1 [Example 53, N-(1-{[(2,2-difluoroethyl)amino]methyl}cyclopropyl)-5-(1H-indole-2-carbonyl)-N-methyl-4H,5H,6H,7H-pyrazolo[1,5-a]pyrazine-3-carboxamide]	> 10 µM	< 1 µM	< 5 µM
CCOCC1(N(C)C(=O)c2cnn3c2CN(C(=O)c2cc4ccccc4[nH]2)CC3)CC1 [Example 12, N-[1-(ethoxymethyl)cyclopropyl]-5-(1H-indole-2-carbonyl)-N-methyl-4H,5H,6H,7H-pyrazolo[1,5-a]pyrazine-3-carboxamide]	> 10 µM	< 1 µM	< 5 µM
COCC1(N(C)C(=O)c2cnn3c2CN(C(=O)c2cc4c(Cl)cccc4[nH]2)CC3)CC1 [Example 7, 5-(4-chloro-1H-indole-2-carbonyl)-N-[1-(methoxymethyl)cyclopropyl]-N-methyl-4H,5H,6H,7H-pyrazolo[1,5-a]pyrazine-3-carboxamide]	> 10 µM	< 1 µM	< 5 µM
CC(NS(=O)(=O)c1cnn2c1CN(C(=O)c1cc3ccccc3[nH]1)CC2)C(F)(F)F (stereo not drawn) [Example 28, 5-(1H-indole-2-carbonyl)-N-(1,1,1-trifluoropropan-2-yl)-4H,5H,6H,7H-pyrazolo[1,5-a]pyrazine-3-sulfonamide]	> 10 µM	1 to 10 µM	< 5 µM
CN1CCN(S(=O)(=O)c2cnn3c2CN(C(=O)c2cc4ccccc4[nH]2)CC3)CC1 [Example 36, 2-{3-[(4-methylpiperazin-1-yl)sulfonyl]-4H,5H,6H,7H-pyrazolo[1,5-a]pyrazine-5-carbonyl}-1H-indole]	> 10 µM	< 1 µM	5 to 10 µM
